Assay results: ChEMBL document CHEMBL1201862, “PubChem BioAssay data set” (2004)
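These data come from cells grown in 96-well plates and exposed to compound for 48 hours at five concentrations. The concentration for 50% growth inhibition is given as GI50.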 Activity calls are given as the source filed them. Rule as the data show it: active = GI50 up to about 1.1 µM and inactive = higher.

Experiments:
Assay in all cases: growth of human tumour cells (NCI), 48 h
786-0 = tested on: 786-0
A549 = tested on: A549
BT-549 = tested on: BT-549
CAKI-1 = tested on: CAKI-1
CCRF-CEM = tested on: CCRF-CEM
COLO 205 = tested on: COLO 205
DU-145 = tested on: DU-145
EKVX = tested on: EKVX
HCT-116 = tested on: HCT-116
HCT-15 = tested on: HCT-15
HL-60 = tested on: HL-60
HOP-62 = tested on: HOP-62
HOP-92 = tested on: HOP-92
HT-29 = tested on: HT-29
Hs-578T = tested on: Hs-578T
IGROV-1 = tested on: IGROV-1
K562 = tested on: K562
KM12 = tested on: KM12
LOX IMVI = tested on: LOX IMVI
M14 = tested on: M14
MCF7 = tested on: MCF7
MDA-MB-231 = tested on: MDA-MB-231
MDA-MB-435 = tested on: MDA-MB-435
MDA-N = tested on: MDA-N
MOLT-4 = tested on: MOLT-4
NCI-H226 = tested on: NCI-H226
NCI-H23 = tested on: NCI-H23
NCI-H460 = tested on: NCI-H460
NCI/ADR-RES = tested on: NCI/ADR-RES
OVCAR-3 = tested on: OVCAR-3
OVCAR-4 = tested on: OVCAR-4
OVCAR-5 = tested on: OVCAR-5
OVCAR-8 = tested on: OVCAR-8
PC-3 = tested on: PC-3
RPMI-8226 = tested on: RPMI-8226
RXF 393 = tested on: RXF 393
SF-268 = tested on: SF-268
SF-295 = tested on: SF-295
SK-MEL-28 = tested on: SK-MEL-28
SK-MEL-2 = tested on: SK-MEL-2
SK-MEL-5 = tested on: SK-MEL-5
SN12C = tested on: SN12C
SNB-19 = tested on: SNB-19
SW-620 = tested on: SW-620
T47D = tested on: T47D
TK-10 = tested on: TK-10
U-251 = tested on: U-251
UACC-257 = tested on: UACC-257
UACC-62 = tested on: UACC-62
UO-31 = tested on: UO-31
ACHN = tested on: ACHN
HCC 2998 = tested on: HCC 2998
Malme-3M = tested on: Malme-3M
NCI-H522 = tested on: NCI-H522
SF-539 = tested on: SF-539
SK-OV-3 = tested on: SK-OV-3
SNB-75 = tested on: SNB-75
SR = tested on: SR

CCc1n[nH]c(=O)n1/N=C(\C)c1ccc([N+](=O)[O-])cc1
GI50 (786-0): > 100 µM (inactive)
GI50 (A549): 86.7 µM (inactive)
GI50 (BT-549): > 100 µM (inactive)
GI50 (CAKI-1): > 100 µM (inactive)
GI50 (CCRF-CEM): > 100 µM (inactive)
GI50 (COLO 205): 46.5 µM (inactive)
GI50 (DU-145): 27.5 µM (inactive)
GI50 (EKVX): > 100 µM (inactive)
GI50 (HCT-116): > 100 µM (inactive)
GI50 (HCT-15): > 100 µM
GI50 (HL-60): > 100 µM (inactive)
GI50 (HOP-62): > 100 µM (inactive)
GI50 (HOP-92): > 100 µM (inactive)
GI50 (HT-29): 36.6 µM (inactive)
GI50 (Hs-578T): 92.3 µM (inactive)
GI50 (IGROV-1): 82.6 µM (inactive)
GI50 (K562): 97.7 µM (inactive)
GI50 (KM12): > 100 µM (inactive)
GI50 (LOX IMVI): 49.4 µM (inactive)
GI50 (M14): > 100 µM (inactive)
GI50 (MCF7): 30.2 µM (inactive)
GI50 (MDA-MB-231): 19.7 µM (inactive)
GI50 (MDA-MB-435): 59.7 µM (inactive)
GI50 (MDA-N): > 100 µM (inactive)
GI50 (MOLT-4): > 100 µM (inactive)
GI50 (NCI-H226): > 100 µM (inactive)
GI50 (NCI-H23): 66.8 µM (inactive)
GI50 (NCI-H460): 46.2 µM (inactive)
GI50 (NCI/ADR-RES): > 100 µM (inactive)
GI50 (OVCAR-3): > 100 µM (inactive)
GI50 (OVCAR-4): > 100 µM (inactive)
GI50 (OVCAR-5): > 100 µM (inactive)
GI50 (OVCAR-8): > 100 µM (inactive)
GI50 (PC-3): > 100 µM (inactive)
GI50 (RPMI-8226): > 100 µM (inactive)
GI50 (RXF 393): 78.5 µM (inactive)
GI50 (SF-268): 26.3 µM (inactive)
GI50 (SF-295): > 100 µM (inactive)
GI50 (SK-MEL-28): > 100 µM (inactive)
GI50 (SK-MEL-2): > 100 µM (inactive)
GI50 (SK-MEL-5): > 100 µM (inactive)
GI50 (SN12C): 54.7 µM (inactive)
GI50 (SNB-19): > 100 µM (inactive)
GI50 (SW-620): 94.2 µM (inactive)
GI50 (T47D): > 100 µM (inactive)
GI50 (TK-10): > 100 µM (inactive)
GI50 (U-251): > 100 µM (inactive)
GI50 (UACC-257): > 100 µM (inactive)
GI50 (UACC-62): > 100 µM (inactive)
GI50 (UO-31): > 100 µM (inactive)

CC(=O)C(=C(c1ccccc1)c1ccccc1)c1ccccc1
GI50 (786-0): > 100 µM (inactive)
GI50 (A549): > 100 µM (inactive)
GI50 (ACHN): > 100 µM (inactive)
GI50 (BT-549): > 100 µM (inactive)
GI50 (CCRF-CEM): 40.7 µM (inactive)
GI50 (COLO 205): > 100 µM (inactive)
GI50 (DU-145): > 100 µM (inactive)
GI50 (EKVX): 15.6 µM (inactive)
GI50 (HCC 2998): > 100 µM (inactive)
GI50 (HCT-116): > 100 µM (inactive)
GI50 (HCT-15): 86.7 µM
GI50 (HL-60): 20.5 µM (inactive)
GI50 (HOP-62): > 100 µM (inactive)
GI50 (HOP-92): > 100 µM (inactive)
GI50 (HT-29): > 100 µM (inactive)
GI50 (Hs-578T): > 100 µM (inactive)
GI50 (K562): 62.7 µM (inactive)
GI50 (KM12): > 100 µM (inactive)
GI50 (LOX IMVI): > 100 µM (inactive)
GI50 (M14): > 100 µM (inactive)
GI50 (MCF7): > 100 µM (inactive)
GI50 (MDA-MB-231): > 100 µM (inactive)
GI50 (MDA-MB-435): > 100 µM (inactive)
GI50 (MDA-N): > 100 µM (inactive)
GI50 (MOLT-4): 87.5 µM (inactive)
GI50 (Malme-3M): > 100 µM (inactive)
GI50 (NCI-H226): > 100 µM (inactive)
GI50 (NCI-H23): > 100 µM (inactive)
GI50 (NCI-H460): > 100 µM (inactive)
GI50 (NCI-H522): > 100 µM (inactive)
GI50 (NCI/ADR-RES): > 100 µM (inactive)
GI50 (OVCAR-3): > 100 µM (inactive)
GI50 (OVCAR-4): 70 µM (inactive)
GI50 (OVCAR-5): > 100 µM (inactive)
GI50 (OVCAR-8): > 100 µM (inactive)
GI50 (PC-3): 45.2 µM (inactive)
GI50 (RPMI-8226): 52.6 µM (inactive)
GI50 (RXF 393): > 100 µM (inactive)
GI50 (SF-268): > 100 µM (inactive)
GI50 (SF-295): > 100 µM (inactive)
GI50 (SF-539): > 100 µM (inactive)
GI50 (SK-MEL-28): > 100 µM (inactive)
GI50 (SK-MEL-5): > 100 µM (inactive)
GI50 (SK-OV-3): > 100 µM (inactive)
GI50 (SN12C): > 100 µM (inactive)
GI50 (SNB-19): > 100 µM (inactive)
GI50 (SNB-75): 87.7 µM (inactive)
GI50 (SR): 31.8 µM (inactive)
GI50 (SW-620): > 100 µM (inactive)
GI50 (T47D): > 100 µM (inactive)
GI50 (TK-10): > 100 µM (inactive)
GI50 (U-251): > 100 µM (inactive)
GI50 (UACC-257): > 100 µM (inactive)
GI50 (UACC-62): > 100 µM (inactive)
GI50 (UO-31): > 100 µM (inactive)

CC1(C)CC(=O)c2c(nc3c(ccc4ccccc43)c2-c2ccc(NC(=O)CCC(=O)Nc3ccc(-c4c5c(nc6c4ccc4ccccc46)CC(C)(C)CC5=O)cc3)cc2)C1
GI50 (786-0): > 100 µM (inactive)
GI50 (A549): > 100 µM (inactive)
GI50 (ACHN): > 100 µM (inactive)
GI50 (BT-549): > 100 µM (inactive)
GI50 (CAKI-1): > 100 µM (inactive)
GI50 (CCRF-CEM): > 100 µM (inactive)
GI50 (COLO 205): > 100 µM (inactive)
GI50 (DU-145): > 100 µM (inactive)
GI50 (EKVX): 95.3 µM (inactive)
GI50 (HCT-116): > 100 µM (inactive)
GI50 (HCT-15): > 100 µM
GI50 (HL-60): > 100 µM (inactive)
GI50 (HOP-62): > 100 µM (inactive)
GI50 (HOP-92): > 100 µM (inactive)
GI50 (HT-29): > 100 µM (inactive)
GI50 (Hs-578T): > 100 µM (inactive)
GI50 (IGROV-1): > 100 µM (inactive)
GI50 (K562): > 100 µM (inactive)
GI50 (KM12): > 100 µM (inactive)
GI50 (LOX IMVI): > 100 µM (inactive)
GI50 (M14): > 100 µM (inactive)
GI50 (MCF7): > 100 µM (inactive)
GI50 (MDA-MB-231): > 100 µM (inactive)
GI50 (MDA-MB-435): > 100 µM (inactive)
GI50 (MDA-N): > 100 µM (inactive)
GI50 (MOLT-4): > 100 µM (inactive)
GI50 (NCI-H226): > 100 µM (inactive)
GI50 (NCI-H460): > 100 µM (inactive)
GI50 (NCI-H522): > 100 µM (inactive)
GI50 (NCI/ADR-RES): > 100 µM (inactive)
GI50 (OVCAR-3): > 100 µM (inactive)
GI50 (OVCAR-5): > 100 µM (inactive)
GI50 (OVCAR-8): > 100 µM (inactive)
GI50 (PC-3): > 100 µM (inactive)
GI50 (RPMI-8226): > 100 µM (inactive)
GI50 (RXF 393): > 100 µM (inactive)
GI50 (SF-268): > 100 µM (inactive)
GI50 (SF-295): > 100 µM (inactive)
GI50 (SF-539): > 100 µM (inactive)
GI50 (SK-MEL-28): > 100 µM (inactive)
GI50 (SK-MEL-2): > 100 µM (inactive)
GI50 (SK-MEL-5): > 100 µM (inactive)
GI50 (SK-OV-3): > 100 µM (inactive)
GI50 (SN12C): > 100 µM (inactive)
GI50 (SNB-19): > 100 µM (inactive)
GI50 (SNB-75): 25 µM (inactive)
GI50 (SR): > 100 µM (inactive)
GI50 (SW-620): > 100 µM (inactive)
GI50 (T47D): > 100 µM (inactive)
GI50 (TK-10): > 100 µM (inactive)
GI50 (U-251): > 100 µM (inactive)
GI50 (UACC-257): > 100 µM (inactive)
GI50 (UACC-62): > 100 µM (inactive)
GI50 (UO-31): > 100 µM (inactive)
